Where two headings read alike, the source gives them in different places.
Columns and labels:
Type in all cases: in vivo
[1] = tested on: Tuta absoluta
Procedure: (§1) The objective of this bioassay is to evaluate the effect of test items on the mortality of adult insects and mites in a short/medium-term (0-24 hours) by topical application. Tests were conducted in plastic net bottles. A total of 10 replicates for each treatment (tests items and negative control) were used in each experiment and temporarily replicated 3 times along the week. (Figure 12)
(§2) Numbers of live and dead adult insects and mites were counted at 24 h post-treatment. Adult insects and mites were considered dead if no movement was apparent after probing with the tip of a fine brush under stereoscopic magnifying glass. Mortality percentage was calculated in treatment and control groups. If the mortality in negative control is above 20% the test was discarded.
(§3) Means of %M were compared using a one-way analysis of variance (ANOVA, p<0.05) and LSD-test as a post hoc test to verify significant differences between single treatments using Statgraphics Centurion XVII software. When nonnormality in the data was detected, an additional Kruskal-Wallis test was conducted, and Box-and-Whisker Plot (Median Notch) was presented.
(§4) The different compositions were tested by trials that were carried out on different relevant insect pests and acari including: Tuta absoluta, Bemisia tabaci, Myzus persicae, Frankliniella occidentalis and Tetranychus urticae. The bioassay type used was contact mortality (Leaf Disc Method) described in the example 4.
(§5) The main treatments included in the comparison of efficacy are: Group A: Individual solvents: Benzyl alcohol, ethanol, isopropanol, and water were applied directly (purity as in the label) diluted at 0.3% (3cc/L) in water without formulation. Group B: Vegetable matrix extracts were extracted with different solvents such as benzyl alcohol, ethanol, isopropanol, and water.

[2] = tested on: Frankliniella occidentalis
Procedure: as §1, §2, §3, §4, §5

[3] = tested on: Tetranychus urticae
Procedure: as §1, §2, §3, §4, §5

[4] = tested on: Myzus persicae
Procedure: as §1, §2, §3, §4, §5

[5] = tested on: Bemisia tabaci
Procedure: as §1, §2, §3, §4, §5

[6] = tested on: Myzus persicae; test: Antifeedant effects: settling inhibition
Procedure: (§6) The concept of antifeedant as a substance that acts on insect behaviour involves feeding reduction (FR), settling inhibition (SI) and oviposition Inhibition (IO). In some cases, settling inhibition is considered as indirect repellent effect. […] It is based on the preference of target adults for treated and non-treated host plants located in the same entomological cages (in plant assays). The experiments were conducted in bugdorm®-type net cages (Figure 13). Four similar host plants (two leaf stage) were transferred to a same pot (Figure 14). Two of the plants were sprayed with biopesticide compositions and the others with the control and dried for 30 minutes. Target adults were released at the site that was equidistant from the two plants. A total of 5 cages for each treatment (four plants each) and control were used in each experiment and replicated 3 times in different days. […] After 24 hours, the number of settled adults in treated and non-treated plants and the number of laid eggs were recorded on the upper and underside of each leaf. Number of adults and eggs were counted under a stereomicroscope. […] T= Settling of treated plants; C= Setting of control plants. Means of %Sl and %IO were analysed for significance by the non-parametric Wilcoxon signed-rank test (p < 0.05).

[7] = tested on: Bemisia tabaci; test: Antifeedant effects: settling inhibition
Procedure: as §6

[8] = tested on: Tuta absoluta; test: Antifeedant effects: feeding reduction
[9] = tested on: Frankliniella occidentalis; test: Antifeedant effects: feeding reduction; settings: F. occidentalis
[10] = tested on: Tetranychus urticae; test: Antifeedant effects: settling inhibition and oviposition inhibition; settings: T. urticae
Procedure: as §6, with “control plants. […] Means of” for “control plants. Means of”

[11] = antifeedant/repellent, concentration under the lethal EC50
[12] = %SI settling inhibition index, at sublethal concentration 0.021 %
[13] = %FR feeding reduction index, at sublethal concentration 0.014 %

CC(C)=CCCC(C)=CC=O [Citral]
%M ([1]; in vivo): 0.0 ±0.0% | %M ([2]; in vivo): 27.8 ± 3.6% | %M ([3]; in vivo): 16.9 ± 3.9% | %M ([4]; in vivo): 30.2 ±5.8% | %M ([5]; in vivo): 20.7 ±7.3%

COC(=O)C=Cc1ccccc1 [Methyl cinnamate]
%SI/ %FR ([6]; %SI settling inhibition index, at sublethal concentration 0.014 %): 17.9 ± 6.7% | Sublethal concentration (%) [6, 11]: 0.014% | %SI/ %FR [7, 12]: 14.4 ± 3.6% | Sublethal concentration (%) [7, 11]: 0.021% | %SI/ %FR [8, 13]: 30.4 ± 5.7% | Sublethal concentration (%) [8, 11]: 0.014% | %SI/ %FR [9, 13]: 22.2 ± 2.1% | Sublethal concentration (%) [9, 11]: 0.014% | %SI/ %FR [10, 12]: 20.0 ± 4.6% | Sublethal concentration (%) [10, 11]: 0.021% | %M ([1]; Tuta absoluta, at sublethal concentration 0.021 %, Abbott's corrected): 17.5 ± 5.9% | Sublethal concentration (%) ([1]; Tuta absoluta, contact mortality, concentration under the lethal EC50): 0.021% | %M ([2]; Frankliniella occidentalis, at sublethal concentration 0.021 %, Abbott's corrected): 25.6 ± 4.6% | Sublethal concentration (%) ([2]; Frankliniella occidentalis, contact mortality, concentration under the lethal EC50): 0.021% | %M ([3]; Tetranychus urticae, at sublethal concentration 0.021 %, Abbott's corrected): 24.7 ± 6.9% | Sublethal concentration (%) ([3]; Tetranychus urticae, contact mortality, concentration under the lethal EC50): 0.021% | %M ([4]; Myzus persicae, at sublethal concentration 0.014 %, Abbott's corrected): 17.1 ± 4.7% | Sublethal concentration (%) ([4]; Myzus persicae, contact mortality, concentration under the lethal EC50): 0.014% | %M ([5]; Bemisia tabaci, at sublethal concentration 0.014 %, Abbott's corrected): 14.5 ± 9.8% | Sublethal concentration (%) ([5]; Bemisia tabaci, contact mortality, concentration under the lethal EC50): 0.014%

Reference: EP4652842A1, “BIOPESTICIDE COMPOSITION, PROCEDURE OF OBTAIN THEREOF, AND METHOD FOR CONTROLLING AND TREATING BROAD SPECTRUM OF PESTS, DISEASES AND WEEDS IN PLANTS” (priority 2024, dated 2025)
